Data taken from US11173124B2, “Oral delivery of GLP-1 peptide analogs” (MEDIMMUNE LIMITED, priority 2017, dated 2021).
Starred links: 1 amine or outer side, 2 acyl side, 3 side chain; linkers in the order of their positions; H or OH if unused. Non-standard residues stand in square brackets, D forms with d. Residues, ends and D or L forms follow the SMILES beside them. Groups on a side chain read outwards from the residue. ξ: configuration not given here. *: point of attachment. γGlu = O=C(O)[C@H](CCC(=O)[*:2])N[*:1]; Palmitoyl = CCCCCCCCCCCCCCCC(=O)*; ξαMeF = CC(N)(Cc1ccccc1)C(=O)O; Lauroyl = CCCCCCCCCCCC(=O)*; ξαMeK = CC(N)(CCCCN)C(=O)O; ξαMeS = CC(N)(CO)C(=O)O; AEEA = NCCOCCOCC(=O)O; Aib = CC(C)(N)C(=O)O

Legend:
[1] = tested on: Gastrointestinal (GI) tract tissues; experiment: Microscopic evaluation of gastrointestinal tract tissues after intraduodenal dosing (Example 4); assay type: in vivo; conditions: rat, following administration of 50 mg/kg sodium caprate
[2] = in vivo; conditions: dog, po
Excerpt: The following materials and methods were used for quantitative measurements of GLP-1 peptide analogs in plasma (e.g., rat or dog plasma) in the Examples below. These methods used a SCIEX 6600 TripleTOF mass spectrometer coupled with a Shimadzu ultra-high performance liquid chromatography (UHPLC). The specificity of the method was ensured by the retention time, the selected mass for Single-Reaction-Monitoring (SRM) mode, and the selected fragment mass in MS/MS (MS^2) mode. […] The analytes of interest were analyzed from plasma, a complex biological matrix. Although protein precipitation using organic solvent can reduce matrix interference, significant background still persists. The high mass accuracy offered by the TripleTOF mass spectrometers further eliminated background noise, thus enhancing signal: noise (S/N) and allowing improved quantification.
The plasma extraction procedure used the following steps: • Samples, standards, and quality controls were incubated until they reached room temperature. They were then incubated at 60° C. for 2 minutes and cooled down to room temperature, vortexed, and spun down. • 70 μL of samples, standards, or quality controls were transferred into a 1 mL 96-well plate. • In each well, 420 uL of Precipitation Solution was added. The plate was sealed and shook for 10 minutes on a plate shaker at 600 rpm. • The plate was centrifuged at 18G, 2500 RFC, 20° C. for 10 minutes. • The plate was carefully removed, and the upper clear supernatant was extracted with a 200 uL multichannel pipette into a new 96-well protein lobind plate. The supernatant was extracted twice for each well, and the supernatants were combined. • The Plate was placed in TurboVap and the extracted supernatant was dried completely with heated (65° C.) Nitrogen gas at 60 Fahrenheit (Fh). • After the plate was completely dry, the plates were covered and incubated at room temperature for at least 30 minutes until the plate returned back to ambient temperature. • 150 μL of Reconstitution solution was added to each well. The plate was covered with a pierceable place seal and shaken at 600 rpm for 10 minutes. • The samples were submitted to the LC-MS/MS on the same day of Preparation
Quantification of the data obtained using the high resolution SCIEX 6600 instrument was then performed as follows: • For the quantification, extracted ion chromatograms (XIC) using 0.2 Da m/z extraction window centered on the accurate mass of each fragment ion were generated. Accurate mass was calculated from the structure of the compound. […] Concentrations of the target analyte in unknown samples were obtained by regression analysis using linear fits of peak areas vs. analyte concentration, weighted 1/(concentration). • The quality of the assay was controlled by the quality control samples. • Either Experiment 1 or Experiment 2 could be used for the quantification of the GLP-1 peptide analogs in high resolution mode.
MEDI7219 (SEQ ID NO:2) formulations were studied in the following canine study, which was designed to compare different tablet delivery systems and peptides in enterically coated tablet formulation compositions delivered orally. […]
The efficacy of sodium caprate as a permeation enhancer was also evaluated.

[3] = tested on: Caco-2 cells; experiment: Caco-2 study, Permeability (%) of lipidated peptides (Example 3); assay type: in vitro ADME, human; conditions: 0.1 mg/mL peptide
Excerpt: The Caco-2 cell line is a continuous cell line of heterogeneous human epithelial colorectal adenocarcinoma cells, which when cultured under specific conditions, become differentiated and polarized such that their phenotype, morphologically and functionally, resembles the enterocytes lining the small intestine. Caco-2 cells express tight junctions, microvilli, and a number of enzymes and transporters that are characteristic of such enterocytes. Caco-2 cells are most commonly used as a tight junction monolayer that provides a physical and biochemical barrier to the passage of drugs and thus serves as an in vitro model of the human small intestinal mucosa to predict the absorption of orally administered drugs. Caco-2 permeability assays were performed by Cyprotex US, LLC (MA, USA) to assess the efficacy of different permeation enhancers. Caco-2 cells were grown on Transwell filters until a transepithelial electric resistance of ˜1000 ohms/cm^2 was achieved. The cells were incubated for three hours with media containing test samples on the apical (top) side of the cell layer, and with blank media on the basolateral (lower) side of the cell layer. Media from the apical and basolateral sides was collected separately after three hours and evaluated for the amount of peptide present on each side. Table 2 gives the permeability coefficient (Papp) of the various test samples, which include the SEQ ID NO:3 GLP-1 peptide in the presence of different excipients.
A following Caco-2 study was performed to evaluate the permeability of different peptides in the presence of various permeation enhancers. Permeability (%) was calculated by dividing the cumulative amount of molecules transported with the original loading amount. Concentrations of peptides in starting sample and apical and basal solutions after incubation for pre-determined periods were analyzed by HPLC. Sodium chenodeoxycholate at 25 mg/mL effected the highest permeability of each tested peptide (Table 4).

[4] = Canine tablet site of absorption study, SEQ ID NO:6 tablets in acid-resistant capsules or IntelliCap (Example 12); assay type: in vivo; conditions: dog; for Tmax / half-life / AUC(0-t) / Cmax: in vivo; for bioavailability: plasma
Protocol: A third site of absorption study was performed to evaluate the absorption sites and tablet formulations in acid-resistant capsules in canines. The tablet manufacturing process was as follows: All ingredients were passed through a US sieve #35 (0.5 mm opening), and the resultant powder was compacted using a pellet press. Compacted material was again passed through a US sieve #35 (0.5 mm opening) to form granules. […] Tablets in this study were either placed in acid-resistant capsules (Table 18, Groups 1 and 2) or in IntelliCap® (Table 18, Groups 3 and 4).

[5] = Third rat ID infusion study, stabilized peptides vs semaglutide (Example 6); conditions: in vivo
Protocol: The third rat ID infusion study was performed to compare bioavailability of stabilized peptides MEDI7219 (SEQ ID NO:2) and SEQ ID NO:6 with that of semaglutide, H-His-Aib-[…]AEEAc-AEEAc-γ-Glu-17-carboxyheptadecanoyl)-[…]OH (SEQ ID NO:11), (Novo Nordisk), an un-stabilized GLP-1 peptide analog, that only has Aib in its sequence for protection from circulating DPP-IV peptidases, (Table 7 and FIG. 2B).

[6] = canine, Intravenous, 0.031 mg/kg, 0.031 mg/mL peptide in Tris Mannitol, pH 8.0
[7] = canine, Oral IntelliCap released in proximal colon, 0.96 mg/kg, 10 mg peptide, 100 mg Na CDC, 50 mg PG tablet
[8] = canine, Oral, 0.54 mg/kg, 5 mg peptide, 100 mg Na CDC, 50 mg PG tablet in Acid-resistant capsule
[9] = canine, Oral, 1.08 mg/kg, 10 mg peptide, 100 mg Na CDC, 50 mg PG tablet in Acid-resistant capsule

CCCCCCCCCC(=O)[O-].[Na+] [sodium caprate]
Gastrointestinal (GI) tract tissues upon microscopic evaluation [1]: looked normal

CCCCCCCCCCCCCCCC(=O)N[C@@H](CCC(=O)NCCOCCOCC(=O)NCCOCCOCC(=O)NCCCC[C@H](NC(=O)[C@H](C)NC(=O)[C@@H](NC(=O)C(C)(Cc1ccccc1)NC(=O)[C@H](CCC(=O)O)NC(=O)C(C)(CCCCN)NC(=O)[C@H](C)NC(=O)[C@H](C)NC(=O)[C@H](CCC(=O)O)NC(=O)CNC(=O)[C@H](CCC(=O)O)NC(=O)[C@H](CC(C)C)NC(=O)[C@H](CCCCNC(=O)COCCOCCNC(=O)COCCOCCNC(=O)CC[C@H](NC(=O)CCCCCCCCCCCCCCC)C(=O)O)NC(=O)[C@H](CO)NC(=O)C(C)(CO)NC(=O)[C@@H](NC(=O)[C@H](CC(=O)O)NC(=O)[C@H](CO)NC(=O)[C@@H](NC(=O)C(C)(Cc1ccccc1)NC(=O)[C@H](CO)NC(=O)CNC(=O)[C@H](CCC(=O)O)NC(=O)C(C)(C)NC(=O)[C@@H](N)Cc1c[nH]cn1)[C@@H](C)O)C(C)C)[C@@H](C)CC)C(=O)N[C@H](C(=O)N[C@H](C(=O)N[C@@H](CCC(=O)O)C(=O)NCC(=O)NCC(N)=O)C(C)C)C(C)C)C(=O)O (some centres unmarked) [SEQ ID NO: 10, Free-H-[AIB]-EGS-[αMePhe]-TSDV-[αMeSer]-SK[(PEG2)2-γE-Palmitoyl]-LEGEAA-[αMeLys]-E-[αMePhe]-IAK[(PEG2)2-γE-Palmitoyl]-VVEGG-amide] (H-H[Aib]EGS[ξαMeF]TSDV[ξαMeS]SK([AEEA-AEEA-γGlu-Palmitoyl])LEGEAA[ξαMeK]E[ξαMeF]IAK([AEEA-AEEA-γGlu-Palmitoyl])VVEGG-NH2)
AUC [2]: 23.7 µg·h/mL
PK variability [2]: 52.3%
half-life [2]: 33 h

CCCCCCCCCCCC(=O)N[C@@H](CCC(=O)NCCOCCOCC(=O)NCCOCCOCC(=O)NCCCC[C@H](NC(=O)[C@H](C)NC(=O)[C@@H](NC(=O)[C@H](Cc1ccccc1)NC(=O)[C@H](CCC(=O)O)NC(=O)C(C)(CCCCN)NC(=O)[C@H](C)NC(=O)[C@H](C)NC(=O)[C@H](CCC(=O)O)NC(=O)CNC(=O)[C@H](CCC(=O)O)NC(=O)[C@H](CC(C)C)NC(=O)[C@H](CCCCNC(=O)COCCOCCNC(=O)COCCOCCNC(=O)CC[C@H](NC(=O)CCCCCCCCCCC)C(=O)O)NC(=O)[C@H](CO)NC(=O)C(C)(CO)NC(=O)[C@@H](NC(=O)[C@H](CC(=O)O)NC(=O)[C@H](CO)NC(=O)[C@@H](NC(=O)C(C)(Cc1ccccc1)NC(=O)[C@H](CO)NC(=O)CNC(=O)[C@H](CCC(=O)O)NC(=O)C(C)(C)NC(=O)[C@@H](N)Cc1c[nH]cn1)[C@@H](C)O)C(C)C)[C@@H](C)CC)C(=O)N[C@H](C(=O)N[C@H](C(=O)N[C@@H](CCC(=O)O)C(=O)NCC(=O)NCC(N)=O)C(C)C)C(C)C)C(=O)O (some centres unmarked) [SEQ ID NO: 6, Free-H-[AIB]-EGS-[αMePhe]-TSDV-[αMeSer]-SK[(PEG2)2-γE-Lauroyl]-LEGEAA-[αMeLys]-EFIAK[(PEG2)2-γE-Lauroyl]-VVEGG-amide] (H-H[Aib]EGS[ξαMeF]TSDV[ξαMeS]SK([AEEA-AEEA-γGlu-Lauroyl])LEGEAA[ξαMeK]EFIAK([AEEA-AEEA-γGlu-Lauroyl])VVEGG-NH2)
Permeability (%) ([3]; 5.0 mg/mL Sodium Chenodeoxycholate): 1.21%
Permeability (%) ([3]; 25 mg/mL Sodium Chenodeoxycholate): 13.3%
Tmax ([4]; po, […]): 0.857 h
half-life ([4]; po, […]): 6.76 h
AUC(0-t) [4, 6]: 0.147 ± 0.0199 µg·h/mL
Cmax [4, 6]: 0.0273 µg/mL
Tmax [4, 6]: 0.444 h
half-life [4, 6]: 7.21 h
AUC(0-t) [4, 7]: 1.49 µg·h/mL
Cmax [4, 7]: 0.21 µg/mL
Tmax [4, 7]: 2.14 h
half-life [4, 7]: 5.37 h
AUC(0-t) [4, 8]: 0.325 ± 0.467 µg·h/mL
Cmax [4, 8]: 0.0473 µg/mL
Tmax [4, 8]: 1.64 h
half-life [4, 8]: 6.99 h
AUC(0-t) [4, 9]: 1.97 µg·h/mL
Cmax [4, 9]: 0.279 µg/mL
Tmax [4, 9]: 1.79 h
half-life [4, 9]: 6.31 h
bioavailability ([4]; po, […]): 2.46%
bioavailability [4, 7]: 2.79%
bioavailability [4, 8]: 1.3%
bioavailability [4, 9]: 3.63%
F [5]: significantly higher absolute bioavailability via ID route than semaglutide
half-life [5]: 9 h
bioavailability ([5]; 1 mg/kg): 1.2%
AUC ([5]; iv, 0.01 mg/kg): 1.07 µg·h/mL
Cmax ([5]; iv, 0.01 mg/kg): 0.211 µg/mL
F ([5]; iv, 0.01 mg/kg): 100%
half-life ([5]; iv, 0.01 mg/kg): 9.2 h
